Earlier results, collected in patent US20110021470A1, “METHODS FOR TREATING CANCER COMPRISING THE ADMINISTRATION OF A VITAMIN D COMPOUND AND AN ADDITIONAL THERAPEUTIC AGENT, AND COMPOSITIONS CONTAINING THE SAME” (Cougar Biotechnology, Inc., priority 2006, published 2011).

Tests used:
[1] = oral lipid formulations (medium chain triglyceride, long chain triglyceride) compared with a formulation containing propylene glycol
[2] = in vivo
[3] = in vivo; remark: listed apart in the source
[4] = test system: cell growth and differentiation

Q: For “1(S),3(R)-dihydroxy-20(R)-(5′-ethyl-5′-hydroxyhepta-1′(E),3′(E)-dien-1′-yl)-9,10-secopregna-5(Z),7(E),-10(19)-triene [Seocalcitol]”, which bioavailability of seocalcitol [1] is on record?
A: twofold higher

Q: And the calcemic activity [2]?
A: low

Q: What about the “calcemic activity relative to 1α,25-dihydroxycholecalciferol” value ([2]; versus 1α,25-dihydroxycholecalciferol) of the same substance?
A: approximately 50 % weaker

Q: What about the biological half-life [3] of the same substance?
A: suitable for systematic use

Q: What about the anti-proliferative activity [4] of the same substance?
A: strong

Q: What about the “potency in regulation of cell growth and differentiation relative to 1α,25-dihydroxycholecalciferol” value ([4]; in vitro and in vivo, versus 1α,25-dihydroxycholecalciferol) of the same substance?
A: 50-200 times more potent
